Where two headings read alike, the source gives them in different places.

The target in one assay is EGFR wildtype (WT) (Homo sapiens, UniProt P00533). In words: Biochemical EGFR kinase assay (Lance Ultra TR-FRET), wildtype. In outline:
(§1)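 In this biochemical assay, phosphorylation after a one-hour room-temperature reaction was detected with europium-labelled anti-phosphopeptide antibody at 2 nM final concentration.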
Background: Time-resolved FRET reads energy transfer from a long-lived donor to a nearby acceptor.

The target of a further assay is EGFR del19/T790M/C797S (Homo sapiens, UniProt P00533, C797S/DEL746-750/T790M). In words: Biochemical EGFR kinase assay (Lance Ultra TR-FRET), del19/T790M/C797S. In outline:
as §1

The next assay deals with EGFR L858R/T790M/C797S (Homo sapiens, UniProt P00533, C797S/L858R/T790M). In words: Biochemical EGFR kinase assay (Lance Ultra TR-FRET), L858R/T790M/C797S. The essentials: as §1
Chain of EGFR L858R/T790M/C797S (P00533 25-1210 T790M/C797S/L858R): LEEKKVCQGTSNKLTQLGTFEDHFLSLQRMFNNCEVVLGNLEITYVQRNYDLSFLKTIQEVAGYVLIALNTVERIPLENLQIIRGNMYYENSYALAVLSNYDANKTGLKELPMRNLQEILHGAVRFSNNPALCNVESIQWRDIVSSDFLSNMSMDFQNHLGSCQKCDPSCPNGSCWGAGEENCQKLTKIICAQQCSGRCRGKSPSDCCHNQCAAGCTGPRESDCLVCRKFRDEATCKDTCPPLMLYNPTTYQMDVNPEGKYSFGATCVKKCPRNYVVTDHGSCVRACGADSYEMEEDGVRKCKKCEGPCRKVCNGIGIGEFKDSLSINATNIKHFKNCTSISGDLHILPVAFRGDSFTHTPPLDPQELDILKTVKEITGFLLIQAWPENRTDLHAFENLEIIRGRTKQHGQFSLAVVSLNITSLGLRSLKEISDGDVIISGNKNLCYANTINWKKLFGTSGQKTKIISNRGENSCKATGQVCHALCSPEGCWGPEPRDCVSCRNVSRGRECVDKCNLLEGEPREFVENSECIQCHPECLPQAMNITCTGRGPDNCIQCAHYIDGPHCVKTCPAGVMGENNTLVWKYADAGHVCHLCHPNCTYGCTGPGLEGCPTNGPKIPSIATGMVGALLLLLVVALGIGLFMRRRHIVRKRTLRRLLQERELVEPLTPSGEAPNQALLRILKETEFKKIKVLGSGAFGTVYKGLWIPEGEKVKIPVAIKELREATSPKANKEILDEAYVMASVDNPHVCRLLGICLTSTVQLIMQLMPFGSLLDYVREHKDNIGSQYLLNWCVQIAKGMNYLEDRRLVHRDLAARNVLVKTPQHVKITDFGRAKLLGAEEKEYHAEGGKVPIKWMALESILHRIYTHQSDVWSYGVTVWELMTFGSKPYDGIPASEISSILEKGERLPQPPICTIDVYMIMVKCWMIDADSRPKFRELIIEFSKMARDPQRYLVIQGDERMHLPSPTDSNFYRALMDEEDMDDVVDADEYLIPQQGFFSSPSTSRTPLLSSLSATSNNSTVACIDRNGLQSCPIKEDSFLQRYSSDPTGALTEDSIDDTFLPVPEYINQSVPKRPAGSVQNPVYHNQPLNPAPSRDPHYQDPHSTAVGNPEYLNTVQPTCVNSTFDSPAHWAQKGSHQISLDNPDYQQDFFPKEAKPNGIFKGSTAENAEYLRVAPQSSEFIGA
A further assay addresses EGFR del19/C797S (Homo sapiens, UniProt P00533, C797S/DEL746-750). In words: Biochemical EGFR kinase assay (Lance Ultra TR-FRET), del19/C797S. In outline: as §1
A further assay addresses EGFR L858R/C797S (Homo sapiens, UniProt P00533, C797S/L858R). In words: Biochemical EGFR kinase assay (Lance Ultra TR-FRET), L858R/C797S. In outline: as §1
The mark [1] stands for this setting: IC50 WT (nM) 100 μM ATP, 100 μM ATP.
Where [2] appears, read: IC50 del19/T790M/C797S (nM) 100 μM ATP, 100 μM ATP.
Setting [3] is: IC50 L858R/T790M/C797S (nM) 100 μM ATP, 100 μM ATP.
The mark [4] stands for this setting: IC50 del19/C797S (nM) 100 μM ATP, 100 μM ATP.
[5] abbreviates: IC50 L858R/C797S (nM) 100 μM ATP, 100 μM ATP.
[6] abbreviates: Km ATP, read-out: IC50 WT (nM) Km ATP.
[7] abbreviates: Km ATP, read-out: IC50 del19/T790M/C797S (nM) Km ATP.
The mark [8] stands for this setting: Km ATP, read-out: IC50 L858R/T790M/C797S (nM) Km ATP.
The mark [9] stands for this setting: Km ATP, read-out: IC50 del19/C797S (nM) Km ATP.
[10] abbreviates: Km ATP, read-out: IC50 L858R/C797S (nM) Km ATP.

Chain of EGFR L858R/C797S (P00533 25-1210 C797S/L858R): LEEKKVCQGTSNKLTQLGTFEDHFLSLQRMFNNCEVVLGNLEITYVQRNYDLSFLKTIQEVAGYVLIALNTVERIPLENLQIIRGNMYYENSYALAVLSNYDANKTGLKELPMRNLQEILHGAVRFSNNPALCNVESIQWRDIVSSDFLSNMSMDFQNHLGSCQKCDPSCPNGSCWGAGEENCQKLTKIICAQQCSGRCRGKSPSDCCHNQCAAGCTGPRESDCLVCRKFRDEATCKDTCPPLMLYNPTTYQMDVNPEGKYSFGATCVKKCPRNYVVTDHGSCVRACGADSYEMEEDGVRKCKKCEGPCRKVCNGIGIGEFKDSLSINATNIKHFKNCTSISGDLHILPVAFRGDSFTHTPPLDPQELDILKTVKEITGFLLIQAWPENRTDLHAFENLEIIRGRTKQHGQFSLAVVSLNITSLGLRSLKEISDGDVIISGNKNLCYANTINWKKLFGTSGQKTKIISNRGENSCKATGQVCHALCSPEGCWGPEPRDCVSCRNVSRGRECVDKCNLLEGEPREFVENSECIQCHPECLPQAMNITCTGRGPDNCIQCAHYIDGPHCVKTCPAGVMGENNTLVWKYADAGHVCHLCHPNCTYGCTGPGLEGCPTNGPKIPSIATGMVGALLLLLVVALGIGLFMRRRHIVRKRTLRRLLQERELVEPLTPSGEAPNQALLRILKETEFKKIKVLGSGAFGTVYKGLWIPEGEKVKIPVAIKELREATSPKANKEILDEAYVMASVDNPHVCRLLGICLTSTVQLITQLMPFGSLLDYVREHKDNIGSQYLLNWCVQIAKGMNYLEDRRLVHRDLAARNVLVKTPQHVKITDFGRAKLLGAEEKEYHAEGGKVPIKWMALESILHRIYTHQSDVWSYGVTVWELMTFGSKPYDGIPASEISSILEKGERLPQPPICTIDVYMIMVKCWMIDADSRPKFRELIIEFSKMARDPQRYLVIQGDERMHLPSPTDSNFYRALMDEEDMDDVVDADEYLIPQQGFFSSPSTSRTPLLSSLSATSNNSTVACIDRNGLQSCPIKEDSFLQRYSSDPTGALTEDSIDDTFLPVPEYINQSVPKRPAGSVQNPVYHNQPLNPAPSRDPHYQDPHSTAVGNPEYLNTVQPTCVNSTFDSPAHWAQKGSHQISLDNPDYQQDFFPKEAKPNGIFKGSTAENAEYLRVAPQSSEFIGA
Chain of EGFR del19/C797S (P00533 with tags, fused parts or gaps DEL746-750/C797S): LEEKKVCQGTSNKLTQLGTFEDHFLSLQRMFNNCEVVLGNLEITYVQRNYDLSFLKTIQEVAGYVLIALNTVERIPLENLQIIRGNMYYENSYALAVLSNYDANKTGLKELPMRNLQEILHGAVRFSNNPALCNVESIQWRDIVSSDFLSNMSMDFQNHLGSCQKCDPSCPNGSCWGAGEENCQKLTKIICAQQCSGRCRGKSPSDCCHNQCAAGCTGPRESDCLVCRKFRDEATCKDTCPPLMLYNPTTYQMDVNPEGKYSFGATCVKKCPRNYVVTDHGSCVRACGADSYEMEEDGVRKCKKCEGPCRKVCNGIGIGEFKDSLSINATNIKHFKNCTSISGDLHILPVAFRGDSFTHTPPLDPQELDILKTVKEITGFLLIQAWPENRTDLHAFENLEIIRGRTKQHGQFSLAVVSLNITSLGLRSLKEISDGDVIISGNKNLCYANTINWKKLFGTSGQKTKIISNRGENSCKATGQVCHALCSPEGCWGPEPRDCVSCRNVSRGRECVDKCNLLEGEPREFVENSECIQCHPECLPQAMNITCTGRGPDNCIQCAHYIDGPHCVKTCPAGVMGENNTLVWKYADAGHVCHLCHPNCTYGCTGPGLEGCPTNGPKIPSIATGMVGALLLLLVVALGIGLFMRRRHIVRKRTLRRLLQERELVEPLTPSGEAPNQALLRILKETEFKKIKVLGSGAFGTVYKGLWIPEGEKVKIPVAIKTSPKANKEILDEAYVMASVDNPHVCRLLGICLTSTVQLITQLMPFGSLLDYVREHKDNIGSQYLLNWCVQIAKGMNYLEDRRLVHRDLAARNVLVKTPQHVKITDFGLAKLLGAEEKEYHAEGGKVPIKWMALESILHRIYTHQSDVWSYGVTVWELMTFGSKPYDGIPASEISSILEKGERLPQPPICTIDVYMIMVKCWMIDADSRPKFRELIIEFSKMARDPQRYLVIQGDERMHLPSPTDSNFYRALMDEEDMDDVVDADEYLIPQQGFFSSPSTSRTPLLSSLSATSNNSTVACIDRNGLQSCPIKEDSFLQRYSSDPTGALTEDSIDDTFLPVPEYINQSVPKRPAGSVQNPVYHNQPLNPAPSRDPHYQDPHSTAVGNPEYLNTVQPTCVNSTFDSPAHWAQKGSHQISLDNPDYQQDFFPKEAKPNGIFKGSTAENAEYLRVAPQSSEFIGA
Chain of EGFR del19/T790M/C797S (P00533 with tags, fused parts or gaps DEL746-750/T790M/C797S): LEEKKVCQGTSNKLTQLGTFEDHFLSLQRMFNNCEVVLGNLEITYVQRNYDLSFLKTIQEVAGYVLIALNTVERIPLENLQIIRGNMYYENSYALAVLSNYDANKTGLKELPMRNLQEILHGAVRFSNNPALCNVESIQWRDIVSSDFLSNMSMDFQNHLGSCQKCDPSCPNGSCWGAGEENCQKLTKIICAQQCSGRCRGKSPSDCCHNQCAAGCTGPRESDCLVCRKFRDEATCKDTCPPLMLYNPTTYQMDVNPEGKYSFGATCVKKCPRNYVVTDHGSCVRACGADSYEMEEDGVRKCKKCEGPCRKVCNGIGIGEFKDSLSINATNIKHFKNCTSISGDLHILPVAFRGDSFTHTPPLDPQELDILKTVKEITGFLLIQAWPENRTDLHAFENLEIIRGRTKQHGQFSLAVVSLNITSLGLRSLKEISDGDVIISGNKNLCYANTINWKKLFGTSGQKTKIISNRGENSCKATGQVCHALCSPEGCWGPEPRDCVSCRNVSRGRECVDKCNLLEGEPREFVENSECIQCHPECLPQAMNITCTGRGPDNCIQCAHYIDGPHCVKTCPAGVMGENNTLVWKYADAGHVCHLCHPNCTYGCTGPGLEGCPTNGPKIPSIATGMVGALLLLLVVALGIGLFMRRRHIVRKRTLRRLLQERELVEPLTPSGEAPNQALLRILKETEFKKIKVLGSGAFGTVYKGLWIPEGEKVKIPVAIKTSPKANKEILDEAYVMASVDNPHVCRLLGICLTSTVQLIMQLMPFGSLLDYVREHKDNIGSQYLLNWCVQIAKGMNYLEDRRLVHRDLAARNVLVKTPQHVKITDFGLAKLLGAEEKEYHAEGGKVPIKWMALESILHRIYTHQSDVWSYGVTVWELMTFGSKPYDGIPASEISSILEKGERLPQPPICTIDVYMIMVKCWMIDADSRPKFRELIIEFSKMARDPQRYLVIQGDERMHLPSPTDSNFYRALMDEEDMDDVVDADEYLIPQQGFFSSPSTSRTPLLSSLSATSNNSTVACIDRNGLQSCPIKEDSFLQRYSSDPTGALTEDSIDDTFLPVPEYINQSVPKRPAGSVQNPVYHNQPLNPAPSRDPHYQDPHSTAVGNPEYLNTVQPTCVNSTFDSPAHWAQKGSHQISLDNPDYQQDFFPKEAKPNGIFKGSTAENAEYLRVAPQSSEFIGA

As to `O=C(c1cnc(Nc2ccnc(-c3cnn(S(=O)(=O)C4CC4)c3)n2)cc1NC1CCC(F)(CO)CC1)C1CC1` (stereo not shown) [Example 87, Cyclopropyl(6-((2-(1-(cyclopropylsulfonyl)-1H-pyrazol-4-yl)pyrimidin-4-yl)amino)-4-((4-fluoro-4-(hydroxymethyl)cyclohexyl)amino)pyridin-3-yl)methanone], the IC50 was greater than 10000 nM at EGFR wildtype (WT) (setting [1]); 2.2 nM against EGFR del19/T790M/C797S (setting [2]); 4.3 nM at EGFR L858R/T790M/C797S (setting [3]); 25.3 nM on EGFR del19/C797S (setting [4]); 442 nM against EGFR L858R/C797S (setting [5]).
The like results for `O=C(c1cnc(Nc2ccnc(-c3cnn(S(=O)(=O)C4CC4)c3)n2)cc1NC1CCC(NCCO)CC1)C1CC1` (stereo not shown) [Example 52, Cyclopropyl(6-((2-(1-(cyclopropylsulfonyl)-1H-pyrazol-4-yl)pyrimidin-4-yl)amino)-4-((4-((2-hydroxyethyl)amino)cyclohexyl)amino)pyridin-3-yl)methanone] were, in that order, greater than 10000 nM, 1.1 nM, 1.8 nM, 26 nM and 15.2 nM.
For the molecule `CNC[C@H]1CC[C@H](CNc2cc(Nc3ccnc(-c4cnn(S(=O)(=O)C5CC5)c4)n3)ncc2C(=O)C2CC2)CC1` [Example 89, Cyclopropyl(6-((2-(1-(cyclopropylsulfonyl)-1H-pyrazol-4-yl)pyrimidin-4-yl)amino)-4-((((1r,4r)-4-((methylamino)methyl)cyclohexyl)methyl)amino)pyridin-3-yl)methanone], the IC50 at EGFR wildtype (WT) (setting [1]) is 532 nM; at EGFR wildtype (WT) (setting [6]) it was 4.9 nM; against EGFR del19/T790M/C797S (setting [2]), 0.2 nM; at EGFR del19/T790M/C797S (setting [7]), 0.2 nM; on EGFR L858R/T790M/C797S (setting [3]) it was 0.1 nM; on EGFR L858R/T790M/C797S (setting [8]), 0.1 nM. Besides, the IC50 against EGFR del19/C797S (setting [4]) was found to be 0.8 nM; on EGFR del19/C797S (setting [9]) it was 0.5 nM; against EGFR L858R/C797S (setting [5]), 7.9 nM; at EGFR L858R/C797S (setting [10]), 0.7 nM.
On to `O=C(c1cnc(Nc2ccnc(-c3cnn(S(=O)(=O)C4CC4)c3)n2)cc1NC[C@H]1CC[C@H](CNC2CCCC2)CC1)C1CC1` [Example 70, (4-((((1r,4r)-4-((Cyclopentylamino)methyl)cyclohexyl)methyl)amino)-6-((2-(1-(cyclopropylsulfonyl)-1H-pyrazol-4-yl)pyrimidin-4-yl)amino)pyridin-3-yl)(cyclopropyl)methanone], for which the IC50 is 24.2 nM on EGFR wildtype (WT) (setting [6]); 0.3 nM on EGFR del19/T790M/C797S (setting [7]); 0.4 nM on EGFR L858R/T790M/C797S (setting [8]); 2.7 nM at EGFR del19/C797S (setting [9]); 14.4 nM at EGFR L858R/C797S (setting [10]).
The corresponding values for `O=C(c1cnc(Nc2ccnc(-c3cnn(S(=O)(=O)C4CC4)c3)n2)cc1NC1CCC(CO)C1)C1CC1` (stereo not shown) [Example 13, Cyclopropyl(6-((2-(1-(cyclopropylsulfonyl)-1H-pyrazol-4-yl)pyrimidin-4-yl)amino)-4-((3-(hydroxymethyl)cyclopentyl)amino)pyridin-3-yl)methanone] are 28.2 nM, 0.2 nM, 0.2 nM, 4.5 nM and 61.7 nM.
`NC[C@H]1CC[C@H](CNc2cc(Nc3ccnc(-c4cnn(S(=O)(=O)C5CC5)c4)n3)ncc2C(=O)C2CC2)CC1` [Example 67, (4-((((1r,4r)-4-(Aminomethyl)cyclohexyl)methyl)amino)-6-((2-(1-(cyclopropylsulfonyl)-1H-pyrazol-4-yl)pyrimidin-4-yl)amino)pyridin-3-yl)(cyclopropyl)methanone]: the IC50 on EGFR wildtype (WT) (setting [6]) was 9.3 nM; at EGFR del19/T790M/C797S (setting [7]) it was 0.2 nM; on EGFR L858R/T790M/C797S (setting [8]), 0.2 nM; on EGFR del19/C797S (setting [9]) it was 0.7 nM; at EGFR L858R/C797S (setting [10]), 4.1 nM.
Take `CC(=O)NC[C@H]1CC[C@H](CNc2cc(Nc3ccnc(-c4cnn(S(=O)(=O)C5CC5)c4)n3)ncc2C(=O)C2CC2)CC1` [Example 68, N-(((1r,4r)-4-(((5-(Cyclopropanecarbonyl)-2-((2-(1-(cyclopropylsulfonyl)-1H-pyrazol-4-yl)pyrimidin-4-yl)amino)pyridin-4-yl)amino)methyl)cyclohexyl)methyl)acetamide]: the IC50 on EGFR wildtype (WT) (setting [6]) is 14.9 nM; on EGFR del19/T790M/C797S (setting [7]) it was 1 nM; on EGFR L858R/T790M/C797S (setting [8]), 0.5 nM; at EGFR del19/C797S (setting [9]), 1 nM; at EGFR L858R/C797S (setting [10]), 11.8 nM.
For `C[C@]1(O)CC[C@@H](Nc2cc(Nc3ccnc(-c4cnn(S(=O)(=O)C5CC5)c4)n3)ncc2C(=O)C(F)F)CC1` [Example 48, 1-(6-((2-(1-(Cyclopropylsulfonyl)-1H-pyrazol-4-yl)pyrimidin-4-yl)amino)-4-(((1s,4s)-4-hydroxy-4-methylcyclohexyl)amino)pyridin-3-yl)-2,2-difluoroethan-1-one], the IC50 is greater than 10000 nM on EGFR wildtype (WT) (setting [1]); 553 nM at EGFR wildtype (WT) (setting [6]); 1 nM on EGFR del19/T790M/C797S (setting [2]); 0.8 nM on EGFR del19/T790M/C797S (setting [7]); 2.4 nM on EGFR L858R/T790M/C797S (setting [3]); 0.5 nM at EGFR L858R/T790M/C797S (setting [8]). The IC50 against EGFR del19/C797S (setting [4]) is 4.4 nM; on EGFR del19/C797S (setting [9]), 15.7 nM; against EGFR L858R/C797S (setting [5]), 110 nM; on EGFR L858R/C797S (setting [10]), 26.2 nM.
Turning to `CN(C)C[C@H]1CC[C@H](CNc2cc(Nc3ccnc(-c4cnn(S(=O)(=O)C5CC5)c4)n3)ncc2C(=O)C2CC2)CC1` [Example 58, Cyclopropyl(6-((2-(1-(cyclopropylsulfonyl)-1H-pyrazol-4-yl)pyrimidin-4-yl)amino)-4-((((1r,4r)-4-((dimethylamino)methyl)cyclohexyl)methyl)amino)pyridin-3-yl)methanone], the IC50 came out at 3.6 nM at EGFR wildtype (WT) (setting [6]); 0.1 nM at EGFR del19/T790M/C797S (setting [7]); 0.1 nM at EGFR L858R/T790M/C797S (setting [8]); 0.4 nM on EGFR del19/C797S (setting [9]); 2.4 nM at EGFR L858R/C797S (setting [10]).
Regarding `CC1(CO)CCN(c2cc(Nc3ccnc(-c4cnn(S(=O)(=O)C5CC5)c4)n3)ncc2F)CC1` [Example 85, (1-(2-((2-(1-(Cyclopropylsulfonyl)-1H-pyrazol-4-yl)pyrimidin-4-yl)amino)-5-fluoropyridin-4-yl)-4-methylpiperidin-4-yl)methanol], the IC50 against EGFR wildtype (WT) (setting [1]) was greater than 10000 nM; against EGFR del19/T790M/C797S (setting [2]), 9.4 nM; against EGFR L858R/T790M/C797S (setting [3]), 21.5 nM; against EGFR del19/C797S (setting [4]), 146 nM; at EGFR L858R/C797S (setting [5]) it was 903 nM.
As for `O=C(c1cnc(Nc2ccnc(-c3cnn(S(=O)(=O)C4CC4)c3)n2)cc1NCCCO)C1CC1` [Example 9, Cyclopropyl(6-((2-(1-(cyclopropylsulfonyl)-1H-pyrazol-4-yl)pyrimidin-4-yl)amino)-4-((3-hydroxypropyl)amino)pyridin-3-yl)methanone], the IC50 was 528 nM at EGFR wildtype (WT) (setting [6]); 0.7 nM at EGFR del19/T790M/C797S (setting [7]); 2.5 nM at EGFR L858R/T790M/C797S (setting [8]); 70.7 nM at EGFR del19/C797S (setting [9]); 479 nM at EGFR L858R/C797S (setting [10]).
On to `CN(C)C[C@H]1CC[C@H](CNc2cc(Nc3ccnc(-c4cn[nH]c4)n3)ncc2C(=O)C2CC2)CC1` [Example 59, (6-((2-(1H-Pyrazol-4-yl)pyrimidin-4-yl)amino)-4-((((1r,4r)-4-((dimethylamino)methyl)cyclohexyl)methyl)amino)pyridin-3-yl)(cyclopropyl)methanone], for which the IC50 came out at 136 nM at EGFR wildtype (WT) (setting [6]); 1.2 nM on EGFR del19/T790M/C797S (setting [7]); 5.7 nM at EGFR L858R/T790M/C797S (setting [8]); 207 nM at EGFR del19/C797S (setting [9]); 67.9 nM on EGFR L858R/C797S (setting [10]).

The values above are taken from patent US11945798B2, “Substituted aminopyridine compounds as EGFR inhibitors” (YUHAN CORPORATION, priority 2021, dated 2024).
